Reference: ChEMBL document CHEMBL5303304, “EUbOPEN Chemogenomics Library - IncuCyte” (2023)

Legend:
Type in all cases: toxicity, cell-based
HEK-293T = assay: Incucyte cell viability with HEK293T; conditions: human, 10 µM, compound concentration 10 uM
U2OS = assay: Incucyte cell viability with U2OS; conditions: human, 10 µM, compound concentration 10 uM
Fibroblast = assay: Incucyte cell viability with human fibroblast; conditions: 10 µM, compound concentration 10 uM
Also: unitless GR value; below 1 slowed growth and below 0 cell loss.

Structure (SMILES) | Growth Rate (HEK-293T; 0 h, replicate number 2) | Growth Rate (HEK-293T; 6 h, replicate number 1) | Growth Rate (HEK-293T; 6 h, replicate number 2) | Growth Rate (HEK-293T; 12 h, replicate number 1) | Growth Rate (HEK-293T; 12 h, replicate number 2) | Growth Rate (HEK-293T; 18 h, replicate number 1) | Growth Rate (HEK-293T; 18 h, replicate number 2) | Growth Rate (HEK-293T; 24 h, replicate number 1) | Growth Rate (HEK-293T; 24 h, replicate number 2) | Growth Rate (U2OS; 0 h, replicate number 1) | Growth Rate (U2OS; 12 h, replicate number 1) | Growth Rate (U2OS; 18 h, replicate number 1) | Growth Rate (U2OS; 18 h, replicate number 2) | Growth Rate (U2OS; 24 h, replicate number 1) | Growth Rate (U2OS; 24 h, replicate number 2) | Growth Rate (Fibroblast; 18 h, replicate number 2) | Growth Rate (Fibroblast; 24 h, replicate number 2) | Growth Rate (Fibroblast; 0 h, replicate number 2) | Growth Rate (Fibroblast; 18 h, replicate number 1) | Growth Rate (Fibroblast; 24 h, replicate number 1) | further results
COc1cc(F)ccc1-c1cc(Nc2cc(CS(C)(=N)=O)ccn2)ncc1F (configuration not stated) [ENITOCICLIB] | 0.31 | 0.19 | -0.19 | -0.15 | -0.41 | -0.19 | -0.4 | -0.17 | -0.34 | -1 | 0.57 | 0.29 | 0.3 | 0.27 | 0.14 | 0.96 | 0.69 | – | – | – | Growth Rate (HEK-293T; 0 h, replicate number 1): -1; Growth Rate (U2OS; 6 h, replicate number 2): 0.69; Growth Rate (U2OS; 12 h, replicate number 2): 0.36; Growth Rate (Fibroblast; 0 h, replicate number 1): -1
COC[C@H](O)Cn1c(=O)cnn(-c2ccc(Cl)c(C(=O)NCC3(O)CCCCCC3)c2)c1=O [CE-224535] | 0.38 | 0.55 | – | – | – | – | – | – | – | -0.6 | – | – | – | – | – | – | – | -1 | -0.48 | – | Growth Rate (Fibroblast; 0 h, replicate number 1): -0.26; Growth Rate (Fibroblast; 12 h, replicate number 1): -1
CC(=O)Nc1nc(C)c(S(=O)(=O)Nc2ccc(C(O)(C(F)(F)F)C(F)(F)F)cc2)s1 | – | 0.85 | – | 0.86 | 0.89 | – | 0.85 | – | 0.78 | -0.47 | 0.61 | 0.74 | – | 0.79 | – | 0.9 | – | 0.65 | 1 | – | Growth Rate (HEK-293T; 0 h, replicate number 1): 0.65; Growth Rate (U2OS; 6 h, replicate number 1): 0.76; Growth Rate (Fibroblast; 6 h, replicate number 2): 0.51; Growth Rate (Fibroblast; 12 h, replicate number 1): 0.45; Growth Rate (Fibroblast; 12 h, replicate number 2): 0.84
CC1(C)CCN(C(=O)C2CN(c3c4c(nc5ccnn35)CCNCC4)C2)C1.O=C(O)C(F)(F)F | 0.61 | -0.5 | – | 0.45 | – | 0.87 | – | 0.96 | – | – | – | – | – | – | – | 0.86 | 0.96 | – | – | 0.98 | Growth Rate (U2OS; 6 h, replicate number 1): 0.78; Growth Rate (Fibroblast; 12 h, replicate number 2): 0.82
Cc1cc(NC(=O)c2cccc(NC(=O)/C=C/CN(C)C)c2)ccc1Nc1nccc(-c2cccnc2)n1 | 0.65 | -0.35 | -0.41 | -0.26 | -0.35 | -0.23 | -0.32 | -0.19 | -0.26 | -1 | 0.69 | 0.46 | 0.93 | 0.29 | 0.51 | -0.3 | -0.29 | 0.14 | -0.24 | -0.22 | Growth Rate (HEK-293T; 0 h, replicate number 1): 0; Growth Rate (Fibroblast; 0 h, replicate number 1): -1; Growth Rate (Fibroblast; 6 h, replicate number 1): 0.07; Growth Rate (Fibroblast; 6 h, replicate number 2): 0.32; Growth Rate (Fibroblast; 12 h, replicate number 1): -0.2; Growth Rate (Fibroblast; 12 h, replicate number 2): -0.15
CC(=O)NCC(=O)N1[C@@H]2CC[C@H]1c1ccc(Nc3ncc(C(F)(F)F)c(NC4CCC4)n3)cc12 [PF-03814735] | – | -0.95 | -0.94 | -0.89 | -0.75 | -0.72 | -0.55 | -0.57 | -0.39 | -0.94 | -0.05 | 0.03 | -0.08 | 0.02 | -0.08 | 0.15 | 0.08 | – | 0.52 | 0.86 | Growth Rate (U2OS; 6 h, replicate number 2): 1; Growth Rate (U2OS; 12 h, replicate number 2): -0.14; Growth Rate (Fibroblast; 0 h, replicate number 1): -0.26; Growth Rate (Fibroblast; 6 h, replicate number 1): -1; Growth Rate (Fibroblast; 12 h, replicate number 2): 0.65
Cc1cc(C(C#N)c2ccc(Cl)cc2)c(Cl)cc1NC(=O)c1cc(I)cc(I)c1O (configuration not stated) [CLOSANTEL] | 0.76 | 0.13 | 0.49 | 0.27 | 0.84 | 0.5 | 0.87 | 0.89 | 0.91 | 0.36 | – | – | 0.87 | 0.98 | 0.99 | – | – | -0.74 | – | – | Growth Rate (HEK-293T; 0 h, replicate number 1): 0.61; Growth Rate (U2OS; 0 h, replicate number 2): -1; Growth Rate (U2OS; 6 h, replicate number 2): 0.91; Growth Rate (U2OS; 12 h, replicate number 2): 0.94; Growth Rate (Fibroblast; 12 h, replicate number 1): -1
Cc1nn(C)c(COc2ccc(N3CCN(S(=O)(=O)N(C)C)CC3)cc2)c1-c1cccc2c(CCCOc3cccc4ccccc34)c(C(=O)O)n(CCN3CCOCC3)c12 | – | 0.99 | 0.84 | 0.93 | – | 0.93 | – | – | – | 0.4 | 0.85 | 0.86 | 0.92 | 0.86 | 0.98 | – | – | – | 0.58 | 0.76 | Growth Rate (HEK-293T; 0 h, replicate number 1): 0.38; Growth Rate (U2OS; 6 h, replicate number 1): 0.3; Growth Rate (U2OS; 6 h, replicate number 2): 0.93; Growth Rate (U2OS; 12 h, replicate number 2): 0.97; Growth Rate (Fibroblast; 6 h, replicate number 1): 0.53
COc1cc(N2CCN(C)CC2)ccc1Nc1ncc2c(n1)N(C)c1ccccc1C(=O)N2CC(F)(F)F | – | -0.03 | 0 | 0.26 | 0.22 | 0.22 | 0.29 | 0.27 | 0.36 | – | 0.97 | 0.99 | 0.87 | – | 0.83 | 0.31 | 0.08 | – | 0.09 | -0.1 | Growth Rate (U2OS; 6 h, replicate number 2): 0.9; Growth Rate (Fibroblast; 6 h, replicate number 1): 0.44; Growth Rate (Fibroblast; 6 h, replicate number 2): 0.47; Growth Rate (Fibroblast; 12 h, replicate number 1): 0.43; Growth Rate (Fibroblast; 12 h, replicate number 2): 0.51
O=C1CSC(=O)N1C(CCc1ccncc1)COc1ccc(-c2cccc([N+](=O)[O-])c2)cc1 (configuration not stated) | – | -0.06 | 0.02 | 0.24 | 0.27 | 0.48 | – | 0.87 | 0.65 | -0.68 | 0.76 | 0.8 | 0.95 | 0.89 | 1 | – | – | -0.87 | 0.92 | 0.45 | Growth Rate (U2OS; 0 h, replicate number 2): -0.97; Growth Rate (U2OS; 6 h, replicate number 1): 0.3; Growth Rate (U2OS; 12 h, replicate number 2): 0.94; Growth Rate (Fibroblast; 0 h, replicate number 1): 0.71
CS(=O)(=O)c1ccc(-c2cnc(N)c(C(=O)Nc3ccccc3)n2)cc1 | 0.8 | -0.29 | -0.17 | -0.15 | -0.14 | 0.01 | -0.07 | 0.07 | 0.05 | – | 0.87 | 0.77 | 0.93 | 0.88 | 0.77 | – | 0.74 | – | – | 0.85 | Growth Rate (Fibroblast; 0 h, replicate number 1): -0.93
CCN(C)C(=O)c1ccc2c(c1)NC(=O)/C2=C(\NC1CCN(C)CC1)c1ccccc1 | – | 0.43 | – | 0.82 | – | – | 0.82 | – | 0.89 | 0.88 | 0.93 | – | – | 0.92 | – | – | 0.93 | -0.73 | – | – | Growth Rate (U2OS; 0 h, replicate number 2): 0.18; Growth Rate (U2OS; 6 h, replicate number 1): 0.68; Growth Rate (Fibroblast; 6 h, replicate number 2): 0.61
CC(C)(C[C@H]1CN(S(=O)(=O)c2cccc(C(F)(F)F)c2)c2cc(-c3cc(F)cc(OC(F)F)c3)ccc2O1)C(=O)O [CINTIRORGON] | -0.41 | 0.88 | 0.81 | – | 0.88 | – | 0.9 | – | – | 0.78 | 0.81 | 0.78 | – | – | – | 0.81 | 0.69 | 0.71 | 0.49 | 0.29 | Growth Rate (HEK-293T; 0 h, replicate number 1): 1; Growth Rate (Fibroblast; 6 h, replicate number 1): -0.68; Growth Rate (Fibroblast; 6 h, replicate number 2): 0.8; Growth Rate (Fibroblast; 12 h, replicate number 1): 0.59; Growth Rate (Fibroblast; 12 h, replicate number 2): 0.54
CN[C@@H](C)C(=O)N[C@H](C(=O)N1CCC[C@H]1c1nc(C(=O)c2ccc(F)cc2)cs1)C1CCCCC1 [LCL-161] | -0.96 | 0.22 | 0.84 | 0.4 | 0.95 | 0.53 | – | 0.84 | – | -0.08 | 0.96 | 0.91 | – | – | – | 0.88 | 0.85 | – | – | – | Growth Rate (U2OS; 6 h, replicate number 1): 0.45; Growth Rate (Fibroblast; 6 h, replicate number 2): 0.19
